We go through 11 molecules from paper PMC5829242, “Chiral DOTA chelators as an improved platform for biomedical imaging and therapy applications” (Nature Communications, 2018).

For data set [1] the following is noted: cited from earlier work; for elimination through the biliary system: predominantly renal elimination.
The conditions of data set [2]: cited from earlier work.
A short description of data set [3]: 17O NMR water exchange (residence time of water co-ligand). The data set is classed as physicochemical. To be noted: 17O NMR at 11.7T; for τM^310K, mean residence time of the water co-ligand at 310 K: q = 1 assumed. As to the method:
(§1) Relaxivity measurements were performed on a Bruker mq60 Minispec at 1.41T and 37 °C. Longitudinal (T1) relaxation times were measured using an inversion recovery experiment with 10 inversion times of duration ranging between 0.05 × T1 and 5 × T1. Transverse (T2) relaxation times were measured using a CPMG pulse sequence. Relaxivity (r1, r2) was determined from the slope of a plot of 1/T1,2 vs [Gd] for at least 4 concentrations of Gd(III) (data shown in Supplementary Figs. 93–110). The T2 relaxation times of ^17O at 11.7T were estimated from the full-width at half-height of the H2^17O resonance at temperatures ranging from 278 to 368K. Reduced relaxation rates (1/T2r) were calculated by taking the difference of 1/T2 measured in the presence and absence of Gd(III) and dividing by the mole fraction of coordinated water molecules, assuming q = 1. […] However, at the high magnetic field used, and because of the very-fast water exchange rates observed, there was negligible contribution of T1e, and the data were refit to a two-parameter model using the water exchange rate at 310K (τM) and enthalpy of activation for water exchange (ΔH^‡) as adjustable parameters. The Gd-O hyperfine coupling constant, A/ħ, was assumed to be -3.8 × 10^6 rad s^−1 [57], [58]. Samples were prepared in neat H2O adjusted and enriched with a small amount of H2^17O.

The nature of data set [4]: Relaxivity measurements at 1.41T and 37 °C. The data set is classed as physicochemical. As to the method: as §1
Data set [5] in a line: Kinetic stability of Gd complexes monitored by RP-HPLC (acid, base, DTPA, DOTA, ZnCl2). It is filed as physicochemical. The source says: The kinetic stability of GBCAs, which reflects the dissociation of the Gd ions from its chelate is used to predict the stability in vivo[10]. The proton-assisted dissociation and direct attack of the endogenous ions are regarded as two main pathways that induced the dissociation of the chelates. The inertness of our Gd(III) complexes was maintained up to 7 days after addition of 1000 equivalents of a competitive ligand, DTPA (Supplementary Fig. 7 & 8). […] The harshest condition tried was setting the complexes of [GdL2A]^−, [GdL2B]^− and [GdDOTA]^− in 1N HCl (Fig. 5, Supplementary Figs. 13 - 15).
Fig. […] Error bars for [GdL2A]^- and [GdL2B]^- refer to the standard error of mean (S.E.M.), statistical data fitting analysis (n = 3; s.e.m.)

The nature of data set [6]: Gd complexes biodistribution studies (ICP-MS). It is filed as in vivo, BALB/c mice. To be noted: 0.025 mmol/kg i.v.; for Gd biodistribution / elimination profile: 5-360 min post injection. From the text: Most commercially available Gd(III)-based MRI contrast agents are excreted rapidly and exclusively through the renal pathway. One of the few exceptions is an acyclic compound, Gd-EOB-DTPA, which has a mixed clearance (50% renal, 50% biliary) and is used for imaging of the liver and biliary system. Gd-BOPTA and MS-325 have predominantly renal elimination with <10% elimination through the biliary system. […] We illustrated with our studies that there is a significant variation in the biodistribution profiles despite the small structural differences of the chiral substituents (Supplementary Fig. 20). Gd biodistribution in BALB/c mice was measured by ICP-MS at 5, 15, 30, 60, 180 and 360 min following injection. […] Low levels of Gd(III) are present at 6 h post injection. […] The specific and unusual localisation of [GdL2]^− in the liver makes it a potential hepatobiliary-specific MRI contrast agent.
Gd concentrations were determined using an Agilent 8800-QQQ ICP-MS system. All samples were diluted with 0.1% Triton X-100 in 5% nitric acid. Lutetium internal standard was steadily introduced to the ICP-MS from an external source during the analysis. A linear calibration curve for each metal ranging from 0.1 ppb to 200 ppb was generated daily for the quantification.
Complexes [GdL1]^−, [GdL2]^− and [GdL5]^− were prepared by dissolving in saline solution, while [GdDOTA]^− (Dotarem) was diluted in saline solution. Eight-week-old male BALB/c mice (purchased from BioLASCO, Taiwan) each weighing approximately 25 g were administered with a single dose of 0.025 mmol/kg compound ([GdL1]^−, [GdL2]^−, [GdDOTA]^− and [GdL5]^−; 3 mice per compound per time point) in a 100 μl volume via lateral tail vein injection. The mice were then euthanized, and their blood collected by cardiac puncture at each time point (5, 15, 30, 60, 180 or 360 min post injection). A control group of 4 mice was treated with saline and killed at time point 0. The liver, lung, heart, kidneys, spleen and brain were removed from the animals and weighed. Gd content in tissue and blood samples was quantified via ICP-MS analysis. All experiments were performed in accordance with the NIH Guide for the Care and Use of Laboratory Animals and approved by the Institutional Animal Care and Use Committee of Massachusetts General Hospital or by the Department of Health of the Hong Kong Government and the Animal Subjects Ethics Sub-Committee of Hong Kong Polytechnic University.

Read-outs that look alike come from different tables or passages of the source.

For `O=C([O-])CN(CCN(CC(=O)[O-])CC(=O)[O-])CCN(CC(=O)[O-])C(COCc1ccccc1)C(=O)[O-].[Gd+3]` (stereo not drawn) [Gd-BOPTA], in data set [1], the “elimination through the biliary system” value is reported as < 10%.

Regarding `C[C@H](C(=O)[O-])N1CCN([C@H](C)C(=O)[O-])CCN([C@H](C)C(=O)[O-])CCN([C@H](C)C(=O)[O-])CC1.[Gd+3]` [Gd-DOTMA], in data set [2] (SAP isomer), the “ΔH^‡” value was 12.8 ± 0.693 kcal/mol and the “τM^310K” value was 156 ns. Also, in data set [2] (TSAP isomer), the “ΔH^‡” value is 9.63 ± 0.526 kcal/mol and the “τM^310K” value was 26 ns.

Take `CCOc1ccc(C[C@@H](CN(CCN(CC(=O)[O-])CC(=O)[O-])CC(=O)[O-])N(CC(=O)[O-])CC(=O)[O-])cc1.[Gd+3].[Na+].[Na+]` [Gd-EOB-DTPA]: in data set [1] (mixed clearance), the biliary clearance share is 50% and the renal clearance share was 50%.

Take `O=C([O-])CN1CCN(CC(=O)[O-])CCN(CC(=O)[O-])[C@@H](Cc2ccc([N+](=O)[O-])cc2)CN(CC(=O)[O-])CC1.[Gd+3]` [Gd-NB-DOTA]: in data set [2] (Mix of isomers), the “ΔH^‡” value was 8.48 kcal/mol and the “τM^310K” value is recorded as 111 ns.

As to `C[C@H](C(=O)[O-])N1CCN([C@H](C)C(=O)[O-])CCN([C@H](C)C(=O)[O-])[C@@H](Cc2ccc([N+](=O)[O-])cc2)CN([C@H](C)C(=O)[O-])CC1.[Gd+3]` [Gd-NB-DOTMA(S-RRR)], in data set [2] (S-SSSS = SAP, S-RRR = TSAP), the “ΔH^‡” value was 6.62 kcal/mol and the “τM^310K” value is recorded as 9.4 ns.

In the case of `C[C@@H](C(=O)[O-])N1CCN([C@@H](C)C(=O)[O-])CCN([C@@H](C)C(=O)[O-])[C@@H](Cc2ccc([N+](=O)[O-])cc2)CN([C@@H](C)C(=O)[O-])CC1.[Gd+3]` [Gd-NB-DOTMA(S-SSSS)], in data set [2] (S-SSSS = SAP, S-RRR = TSAP), the “ΔH^‡” value was 6.31 kcal/mol and the “τM^310K” value is listed as 77 ns.

Turning to `O=C([O-])CN(CCN(CC(=O)[O-])C[C@H](COP(=O)([O-])OC1CCC(c2ccccc2)(c2ccccc2)CC1)N(CC(=O)[O-])CC(=O)[O-])CC(=O)[O-].[Gd+3].[H+].[H+].[H+]` [MS-325], in data set [1], the blood half-life result was “unusually long”, the serum albumin binding result is recorded as “extensive serum albumin binding” and the “elimination through the biliary system” value was < 10%.

As to `CC[C@@H]1CN(CC(=O)[O-])[C@H](CC)CN(CC(=O)[O-])[C@H](CC)CN(CC(=O)[O-])[C@H](CC)CN1CC(=O)[O-].[Gd+3]` [[Gd(R)L2A]^−], the “ΔH^‡, enthalpy change of activation of water exchange” value in data set [3] stood at 7.89 ± 0.502 kcal/mol. Besides, the “τM^310K, mean residence time of the water co-ligand at 310 K” value in data set [3] was 8.1 ± 0.4 ns. Also, the r1 relaxivity in data set [4] (4.5% w/v HSA (1.4T)) is 4.5 mM⁻¹ s⁻¹; in data set [4] (Human Plasma (1.4T)), 4.6 mM⁻¹ s⁻¹; in data set [4] (Water (1.4T)) it was 3.9 mM⁻¹ s⁻¹.

Turning to `CC[C@@H]1CN(CC(=O)[O-])[C@H](CC)CN(CC(=O)[O-])[C@H](CC)CN(CC(=O)[O-])[C@H](CC)CN1CC(=O)[O-].[Gd+3]` [[Gd(R)L2B]^−], in data set [3], the “ΔH^‡, enthalpy change of activation of water exchange” value came to 2.87 ± 0.406 kcal/mol. In addition, the “τM^310K, mean residence time of the water co-ligand at 310 K” value in data set [3] was 2.9 ± 0.1 ns. Also, the r1 relaxivity in data set [4] (4.5% w/v HSA (1.4T)) was 4.8 mM⁻¹ s⁻¹; in data set [4] (Human Plasma (1.4T)), 4.9 mM⁻¹ s⁻¹; in data set [4] (Water (1.4T)) it was 3.9 mM⁻¹ s⁻¹.

Turning to `O=C([O-])CN1CCN(CC(=O)[O-])CCN(CC(=O)[O-])CCN(CC(=O)[O-])CC1.[Gd+3]` [[GdDOTA]^−, reference compound], the “half-life of the complex” value in data set [5] (1N HCl, room temperature) is listed as < 25 h; in data set [5] (100 equivalents of zinc chloride at 50 °C), ~ 100 h. Besides, the “Gd biodistribution / elimination profile” value in data set [6] is on record as “rapid elimination from the body via the kidneys”. In data set [6] (ICP-MS), the “Gd(III) present at 6 h post injection” value is on record as “Low levels”. The “ΔH^‡” value is 13.9 ± 0.598 kcal/mol in data set [2] (SAP isomer) and 10 ± 0.741 kcal/mol in data set [2] (TSAP isomer). The results for the “τM^310K” value in data set [2] (SAP isomer) and in data set [2] (TSAP isomer) were 141 ns and 27 ns, respectively. Further, the r1 relaxivity was 4.1 mM⁻¹ s⁻¹ in data set [4] (4.5% w/v HSA (1.4T)), 4.0 mM⁻¹ s⁻¹ in data set [4] (Human Plasma (1.4T)) and 3.2 mM⁻¹ s⁻¹ in data set [4] (Water (1.4T)).

Regarding `CC[C@H]1CN(CC(=O)[O-])[C@@H](CC)CN(CC(=O)[O-])[C@@H](CC)CN(CC(=O)[O-])[C@@H](CC)CN1CC(=O)[O-].[Gd+3]` [[GdL2]^−], the “Gd biodistribution / elimination profile” value in data set [6] is recorded as “mainly distributed in the liver”. The “Gd(III) detected after 60 min (liver retention)” value in data set [6] (ICP-MS) is “negligible amounts”.
